Legend:
Conditions in all cases: 48 h
P12-Ichikawa [1] = assay: AUC of viability dose-response curve (% viability x log10 dose units); higher = less sensitive
Outline: (§1)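 Leukemia cells adapted to each medium (500 or 1000 cells/well, 1536-well plates) were exposed to library compounds in DMSO for 48 h at 37°C at 11 threefold doses, 47 μM to 0.79 nM. Luminescence by CellTiter-Glo One was normalised per plate to DMSO and cell-free wells, then fitted with a four-parameter log-logistic curve on log10 dose. Curves above full viability were scaled and quality-control failures removed before area under the curve was integrated by trapezoidal rule.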

SEM cells [2] = assay: as above
Outline: as §1

NOMO1 [3] = assay: as above
Outline: as §1

P12-Ichikawa [4] = assay: cell viability relative to DMSO control; higher = less cytotoxic
Outline: (§2)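 Library compounds in DMSO were pin-dosed into 1536-well plates (5 μl) holding NOMO1 or SEM (500 cells/well) or P12-Ichikawa (1000 cells/well) leukemia cells, across an 11-point threefold series of 47 μM to 0.79 nM. Each cell line had been adapted for at least four passages in each medium. CellTiter-Glo One luminescence was read after 48 h at 37°C. Viability is the per-plate percentage relative to DMSO wells, with cell-free wells as background.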

SEM cells [5] = assay: as above
Outline: as §2

NOMO1 [6] = assay: as above
Outline: as §2

C\C1=C(\C=C(C#N)/C(=O)N1)C2=C[N]3C=CN=C3C=C2
AUC of viability dose-response curve
Conditions | NOMO1 [3] | P12-Ichikawa [1] | SEM cells [2]
HPLM + 10% dialyzed FBS | 407 | 419 | 383
RPMI 5 mM glucose + 10% FBS | 393 | 394 | 424
RPMI 5 mM glucose + 10% dialyzed FBS | 405 | 375 | 411

cell viability [%]
Conditions | NOMO1 [6] | P12-Ichikawa [4] | SEM cells [5]
HPLM + 10% dialyzed FBS, 0.000781 µM | 69.8 | 88.1 | 66.9
HPLM + 10% dialyzed FBS, 0.00234 µM | 82.7 | 82.3 | 77.5
HPLM + 10% dialyzed FBS, 0.00702 µM | 88.2 | 87.3 | 81.6
HPLM + 10% dialyzed FBS, 0.0211 µM | 79.1 | 89.8 | 75
HPLM + 10% dialyzed FBS, 0.0632 µM | 80.9 | 87.1 | 82.2
HPLM + 10% dialyzed FBS, 0.19 µM | 79.9 | 84.6 | 72.6
HPLM + 10% dialyzed FBS, 0.569 µM | 83.7 | 89.9 | 71.8
HPLM + 10% dialyzed FBS, 1.71 µM | 89.3 | 88.5 | 87.4
HPLM + 10% dialyzed FBS, 5.12 µM | 97.9 | 85.1 | 91.4
HPLM + 10% dialyzed FBS, 15.4 µM | 94.4 | 91.5 | 83.3
HPLM + 10% dialyzed FBS, 46.1 µM | 93 | 92.5 | 94.7
RPMI 5 mM glucose + 10% FBS, 0.000781 µM | 85.2 | 88.8 | 73.7
RPMI 5 mM glucose + 10% FBS, 0.00234 µM | 82.2 | 80.1 | 88
RPMI 5 mM glucose + 10% FBS, 0.00702 µM | 80.6 | 82.9 | 82.8
RPMI 5 mM glucose + 10% FBS, 0.0211 µM | 80.9 | 88 | 96.8
RPMI 5 mM glucose + 10% FBS, 0.0632 µM | 84.5 | 79.3 | 90.4
RPMI 5 mM glucose + 10% FBS, 0.19 µM | 80.1 | 79.2 | 73.6
RPMI 5 mM glucose + 10% FBS, 0.569 µM | 94.5 | 80 | 94.6
RPMI 5 mM glucose + 10% FBS, 1.71 µM | 72.7 | 81.7 | 85.9
RPMI 5 mM glucose + 10% FBS, 5.12 µM | 81.1 | 86.6 | 102
RPMI 5 mM glucose + 10% FBS, 15.4 µM | 84.8 | 80.5 | 99.2
RPMI 5 mM glucose + 10% FBS, 46.1 µM | 78.9 | 84.7 | 89.6
RPMI 5 mM glucose + 10% dialyzed FBS, 0.000781 µM | 78.8 | 81.7 | 79.6
RPMI 5 mM glucose + 10% dialyzed FBS, 0.00234 µM | 81.1 | 72.9 | 72.2
RPMI 5 mM glucose + 10% dialyzed FBS, 0.00702 µM | 88.1 | 78.3 | 87.6
RPMI 5 mM glucose + 10% dialyzed FBS, 0.0211 µM | 83.4 | 78.7 | 88
RPMI 5 mM glucose + 10% dialyzed FBS, 0.0632 µM | 84.2 | 81.5 | 81.8
RPMI 5 mM glucose + 10% dialyzed FBS, 0.19 µM | 84.5 | 78.8 | 77.7
RPMI 5 mM glucose + 10% dialyzed FBS, 0.569 µM | 90.2 | 80.7 | 86.6
RPMI 5 mM glucose + 10% dialyzed FBS, 1.71 µM | 92 | 78.3 | 98.8
RPMI 5 mM glucose + 10% dialyzed FBS, 5.12 µM | 91.3 | 80.4 | 86.9
RPMI 5 mM glucose + 10% dialyzed FBS, 15.4 µM | 85.3 | 74.9 | 93.4
RPMI 5 mM glucose + 10% dialyzed FBS, 46.1 µM | 74.6 | 77.9 | 94

CCC[C@H]1C[C@H](C(=O)N[C@@H]([C@@H]2O[C@@H](SC)[C@@H](O)[C@@H](O)[C@H]2O)[C@H](C)Cl)N(C)C1
AUC of viability dose-response curve
Conditions | NOMO1 [3] | P12-Ichikawa [1] | SEM cells [2]
HPLM + 10% dialyzed FBS | 459 | 465 | 447
RPMI 5 mM glucose + 10% FBS | 430 | 455 | 450
RPMI 5 mM glucose + 10% dialyzed FBS | 439 | 467 | 447

cell viability [%]
Conditions | NOMO1 [6] | P12-Ichikawa [4] | SEM cells [5]
HPLM + 10% dialyzed FBS, 0.000781 µM | 102 | 103 | 79
HPLM + 10% dialyzed FBS, 0.00234 µM | 117 | 117 | 90.9
HPLM + 10% dialyzed FBS, 0.00702 µM | 106 | 115 | 91.2
HPLM + 10% dialyzed FBS, 0.0211 µM | 119 | 120 | 95.1
HPLM + 10% dialyzed FBS, 0.0632 µM | 128 | 119 | 100
HPLM + 10% dialyzed FBS, 0.19 µM | 121 | 124 | 94.1
HPLM + 10% dialyzed FBS, 0.569 µM | 131 | 123 | 130
HPLM + 10% dialyzed FBS, 1.71 µM | 118 | 124 | 106
HPLM + 10% dialyzed FBS, 5.12 µM | 124 | 125 | 109
HPLM + 10% dialyzed FBS, 15.4 µM | 137 | 118 | 98.4
HPLM + 10% dialyzed FBS, 46.1 µM | 114 | 127 | 99.9
RPMI 5 mM glucose + 10% FBS, 0.000781 µM | 119 | 105 | 101
RPMI 5 mM glucose + 10% FBS, 0.00234 µM | 115 | 113 | 114
RPMI 5 mM glucose + 10% FBS, 0.00702 µM | 108 | 112 | 117
RPMI 5 mM glucose + 10% FBS, 0.0211 µM | 118 | 121 | 101
RPMI 5 mM glucose + 10% FBS, 0.0632 µM | 112 | 132 | 132
RPMI 5 mM glucose + 10% FBS, 0.19 µM | 134 | 131 | 112
RPMI 5 mM glucose + 10% FBS, 0.569 µM | 123 | 137 | 112
RPMI 5 mM glucose + 10% FBS, 1.71 µM | 116 | 119 | 117
RPMI 5 mM glucose + 10% FBS, 5.12 µM | 129 | 130 | 110
RPMI 5 mM glucose + 10% FBS, 15.4 µM | 126 | 130 | 126
RPMI 5 mM glucose + 10% FBS, 46.1 µM | 143 | 134 | 124
RPMI 5 mM glucose + 10% dialyzed FBS, 0.000781 µM | 112 | 113 | 66.4
RPMI 5 mM glucose + 10% dialyzed FBS, 0.00234 µM | 117 | 122 | 84.7
RPMI 5 mM glucose + 10% dialyzed FBS, 0.00702 µM | 120 | 115 | 94
RPMI 5 mM glucose + 10% dialyzed FBS, 0.0211 µM | 113 | 115 | 87.3
RPMI 5 mM glucose + 10% dialyzed FBS, 0.0632 µM | 114 | 128 | 97.7
RPMI 5 mM glucose + 10% dialyzed FBS, 0.19 µM | 119 | 124 | 89.6
RPMI 5 mM glucose + 10% dialyzed FBS, 0.569 µM | 122 | 126 | 110
RPMI 5 mM glucose + 10% dialyzed FBS, 1.71 µM | 109 | 119 | 94.3
RPMI 5 mM glucose + 10% dialyzed FBS, 5.12 µM | 129 | 130 | 97.7
RPMI 5 mM glucose + 10% dialyzed FBS, 15.4 µM | 127 | 122 | 110
RPMI 5 mM glucose + 10% dialyzed FBS, 46.1 µM | 130 | 121 | 101

Source: the supplement of paper PMC11451515
